The results in this text go back to patent US10981905B2, “Heteroaryl-substituted sulfonamide compounds and their use as therapeutic agents” (Xenon Pharmaceuticals Inc., priority 2018, dated 2021).

Each structure is given as a SMILES string. Counter-ions that a name gives are not always drawn. Like-named read-outs stand apart in the source and are kept apart here.

The target in one series is Nav1.1 (Homo sapiens (Human), UniProt P35498). The experiment in a line: Sodium Influx Assay (Flux), Nav1.1. Type of series: cell-based. The following applies: Trex HEK293 cells, ANG2 dye, inactivated state.
The target in the next series is Nav1.5 (Homo sapiens (Human), UniProt Q14524). The experiment in a line: Sodium Influx Assay (Flux), Nav1.5.
Nav1.5, sequence (Q14524 other isoform, or with tags, fused parts or gaps): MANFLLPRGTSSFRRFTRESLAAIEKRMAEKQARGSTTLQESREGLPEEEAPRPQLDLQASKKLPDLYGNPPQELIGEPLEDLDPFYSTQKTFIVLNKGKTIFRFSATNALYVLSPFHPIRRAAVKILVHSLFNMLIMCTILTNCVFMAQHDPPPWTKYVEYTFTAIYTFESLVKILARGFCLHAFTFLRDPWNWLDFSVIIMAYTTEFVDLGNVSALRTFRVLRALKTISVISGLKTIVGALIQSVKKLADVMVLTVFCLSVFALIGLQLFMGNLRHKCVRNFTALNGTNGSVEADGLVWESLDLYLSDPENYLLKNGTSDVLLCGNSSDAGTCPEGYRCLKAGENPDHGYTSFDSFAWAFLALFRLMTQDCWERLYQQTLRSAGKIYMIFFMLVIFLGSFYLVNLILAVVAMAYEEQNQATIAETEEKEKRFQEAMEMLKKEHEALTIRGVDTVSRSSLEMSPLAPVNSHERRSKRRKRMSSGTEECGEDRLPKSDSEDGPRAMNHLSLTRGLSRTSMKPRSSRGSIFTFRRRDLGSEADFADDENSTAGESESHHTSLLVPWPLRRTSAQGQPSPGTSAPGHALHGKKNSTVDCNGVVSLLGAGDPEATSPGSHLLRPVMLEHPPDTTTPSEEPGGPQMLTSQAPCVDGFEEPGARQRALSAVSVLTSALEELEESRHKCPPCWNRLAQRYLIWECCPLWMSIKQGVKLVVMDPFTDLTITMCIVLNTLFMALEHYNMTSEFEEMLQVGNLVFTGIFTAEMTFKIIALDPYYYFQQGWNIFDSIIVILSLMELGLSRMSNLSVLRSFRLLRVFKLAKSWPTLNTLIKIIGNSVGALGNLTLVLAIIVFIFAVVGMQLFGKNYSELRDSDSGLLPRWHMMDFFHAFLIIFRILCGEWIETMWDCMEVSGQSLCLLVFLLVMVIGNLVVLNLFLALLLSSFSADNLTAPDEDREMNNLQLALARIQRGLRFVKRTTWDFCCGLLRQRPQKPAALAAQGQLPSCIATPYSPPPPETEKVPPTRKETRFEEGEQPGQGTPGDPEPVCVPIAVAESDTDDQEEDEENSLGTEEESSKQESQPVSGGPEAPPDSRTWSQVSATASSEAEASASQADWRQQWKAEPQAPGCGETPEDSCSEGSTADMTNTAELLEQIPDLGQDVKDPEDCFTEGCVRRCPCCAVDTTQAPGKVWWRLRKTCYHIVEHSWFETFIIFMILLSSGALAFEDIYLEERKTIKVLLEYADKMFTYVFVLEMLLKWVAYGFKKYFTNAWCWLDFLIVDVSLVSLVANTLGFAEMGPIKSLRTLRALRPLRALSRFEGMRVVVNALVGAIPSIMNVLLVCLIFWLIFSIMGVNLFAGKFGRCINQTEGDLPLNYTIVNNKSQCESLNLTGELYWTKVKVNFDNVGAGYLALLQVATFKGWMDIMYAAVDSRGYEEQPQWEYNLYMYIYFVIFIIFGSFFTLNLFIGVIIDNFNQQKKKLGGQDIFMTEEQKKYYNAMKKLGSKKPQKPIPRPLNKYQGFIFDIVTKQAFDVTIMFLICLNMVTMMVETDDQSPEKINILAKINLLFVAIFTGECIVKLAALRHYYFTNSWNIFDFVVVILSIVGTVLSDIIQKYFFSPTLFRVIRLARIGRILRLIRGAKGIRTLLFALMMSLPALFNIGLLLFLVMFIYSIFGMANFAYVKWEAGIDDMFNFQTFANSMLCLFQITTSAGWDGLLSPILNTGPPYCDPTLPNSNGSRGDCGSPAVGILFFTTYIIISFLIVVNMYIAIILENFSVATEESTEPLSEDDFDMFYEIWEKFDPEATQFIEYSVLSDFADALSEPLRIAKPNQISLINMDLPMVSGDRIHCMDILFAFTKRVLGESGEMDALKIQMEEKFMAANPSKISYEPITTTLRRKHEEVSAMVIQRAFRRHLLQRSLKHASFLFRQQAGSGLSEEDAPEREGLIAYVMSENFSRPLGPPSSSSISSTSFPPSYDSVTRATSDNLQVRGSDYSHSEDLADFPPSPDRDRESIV
The next series deals with Nav1.6 (Homo sapiens (Human), UniProt Q9UQD0). The experiment in a line: Sodium Influx Assay (Flux), Nav1.6. The note with it: Trex HEK293 cells, ANG2 dye, inactivated state. Type of series: cell-based.
Setting [1] is: read-out: Flux NaV1.5 IC50, sodium influx assay, Trex HEK293 cells, ANG2 dye, inactivated state.

With `Cc1nc(S(=O)(=O)Nc2ccon2)c(F)cc1NCc1ccccc1CN(C)C(C)(C)C` [Example 46, 5-((2-((tert-butyl(methyl)amino)methyl)benzyl)amino)-3-fluoro-N-(isoxazol-3-yl)-6-methylpyridine-2-sulfonamide trifluoroacetic acid salt], the IC50 at Nav1.1 was no less than 30 µM; against Nav1.5 it was no less than 30 µM; against Nav1.6 it was 1.78 µM.
For the compound `Cc1c(NCc2c(F)cccc2CN(C)C(C)C)cnc(S(=O)(=O)Nc2cccc(F)n2)c1F` [Example 45, 3-fluoro-5-((2-fluoro-6-((isopropyl(methyl)amino)methyl)benzyl)amino)-N-(6-fluoropyridin-2-yl)-4-methylpyridine-2-sulfonamide], the IC50 against Nav1.1 was found to be 30 µM; on Nav1.5 (setting [1]), 30 µM; at Nav1.6, 1.93 µM.
Turning to `Cc1cc(S(=O)(=O)Nc2cscn2)ncc1NCc1c(F)cccc1CN1CCC1` [Example 7, 5-((2-(azetidin-1-ylmethyl)-6-fluorobenzyl)amino)-4-methyl-N-(thiazol-4-yl)pyridine-2-sulfonamide formic acid salt], the IC50 against Nav1.1 is 30 µM; at Nav1.5 (setting [1]), 30 µM; against Nav1.6, 5.82 µM.
On to `CN(Cc1cccc(F)c1CNc1cc(F)c(S(=O)(=O)Nc2cscn2)nc1C1CC1)C(C)(C)C` [Example 49, 5-((2-((tert-butyl(methyl)amino)methyl)-6-fluorobenzyl)amino)-6-cyclopropyl-3-fluoro-N-(thiazol-4-yl)pyridine-2-sulfonamide], for which the values for the IC50 against Nav1.1, at Nav1.5 (setting [1]) and at Nav1.6 were 3.75 µM, 7.5 µM and 0.078 µM, respectively.
In the same order, the values of `Cc1cc(S(=O)(=O)Nc2cccc(F)n2)sc1NCc1c(F)cccc1CN1CCCC1` [Example 43, 5-((2-fluoro-6-(pyrrolidin-1-ylmethyl)benzyl)amino)-N-(6-fluoropyridin-2-yl)-4-methylthiophene-2-sulfonamide trifluoroacetic acid salt] are 8.21 µM, 10.3 µM and 2.11 µM.
For `Cc1nc(S(=O)(=O)Nc2cscn2)ccc1NCc1ccccc1CN1CCC1` [Example 26, 5-((2-(azetidin-1-ylmethyl)benzyl)amino)-6-methyl-N-(thiazol-4-yl)pyridine-2-sulfonamide trifluoroacetic acid salt], the half-inhibitory concentration (IC50) against Nav1.1 stood at 30 µM; at Nav1.5 (setting [1]) it was 30 µM; at Nav1.6 it was 0.242 µM.
As for `O=S(=O)(Nc1cscn1)c1ccc(NCc2c(F)cccc2CN2CCCC2)c(C(F)F)n1` [Example 18, 6-(difluoromethyl)-5-((2-fluoro-6-(pyrrolidin-1-ylmethyl)benzyl)amino)-N-(thiazol-4-yl)pyridine-2-sulfonamide formic acid salt], the values for the IC50 at Nav1.1, at Nav1.5 (setting [1]) and against Nav1.6 were 15.5 µM, 21.4 µM and 0.015 µM, respectively.
On the same counts, the results for `O=S(=O)(Nc1cscn1)c1ccc(NCc2c(F)ccc(F)c2CN2CCCC2)n2ccnc12` [Example 44, 5-((3,6-difluoro-2-(pyrrolidin-1-ylmethyl)benzyl)amino)-N-(thiazol-4-yl)imidazo[1,2-a]pyridine-8-sulfonamide trifluoroacetic acid salt] are 20.2 µM, 8.85 µM and 0.171 µM.
`C[C@H](Nc1ncc(S(=O)(=O)Nc2cscn2)cc1Cl)c1ccccc1F` [Example 2, (S)-5-chloro-6-((1-(2-fluorophenyl)ethyl)amino)-N-(thiazol-4-yl)pyridine-3-sulfonamide]: the figures for the half-maximal inhibitory concentration (IC50) against Nav1.1, on Nav1.5 (setting [1]) and against Nav1.6 were 25.8 µM, 20.4 µM and 13.2 µM, respectively.
Turning to `Cc1nc(S(=O)(=O)Nc2cscn2)ccc1NCc1ccccc1CN(C)C(C)(C)C` [Example 28, 5-((2-((tert-butyl(methyl)amino)methyl)benzyl)amino)-6-methyl-N-(thiazol-4-yl)pyridine-2-sulfonamide trifluoroacetic acid salt], the results for the half-maximal inhibitory concentration (IC50) at Nav1.1, on Nav1.5 and on Nav1.6 were no less than 30 µM, no less than 30 µM and 0.782 µM, respectively.
Regarding `Cc1cc(S(=O)(=O)Nc2cscn2)cnc1NCc1c(F)cccc1CN(C)C(C)(C)C` [Example 13, 6-((2-((tert-butyl(methyl)amino)methyl)-6-fluorobenzyl)amino)-5-methyl-N-(thiazol-4-yl)pyridine-3-sulfonamide formic acid salt], the IC50 on Nav1.1 amounted to 14.9 µM; on Nav1.5 (setting [1]), 6.02 µM; against Nav1.6, 11.3 µM.
In the same order, the values of `Cc1nc(S(=O)(=O)Nc2cscn2)ccc1NCc1c(F)cccc1CN1CC(C)C1` [Example 24, 5-((2-fluoro-6-((3-methylazetidin-1-yl)methyl)benzyl)amino)-6-methyl-N-(thiazol-4-yl)pyridine-2-sulfonamide] are 30 µM, 30 µM and 0.074 µM.
In the same order, the values of `Cc1nc(S(=O)(=O)Nc2cscn2)ccc1NCc1c(F)cccc1CN1CCC1(C)C` [Example 8, 5-((2-((2,2-dimethylazetidin-1-yl)methyl)-6-fluorobenzyl)amino)-6-methyl-N-(thiazol-4-yl)pyridine-2-sulfonamide trifluoroacetic acid salt] are 30 µM, 30 µM and 0.719 µM.
In the case of `O=S(=O)(Nc1cccc(F)n1)c1cnc(NCc2c(F)cccc2CN2CCCC2)c(Cl)c1` [Example 42, 5-chloro-6-((2-fluoro-6-(pyrrolidin-1-ylmethyl)benzyl)amino)-N-(6-fluoropyridin-2-yl)pyridine-3-sulfonamide trifluoroacetic acid salt], the IC50 at Nav1.1 turned out to be 6.29 µM; on Nav1.5 (setting [1]) it was 9.11 µM; against Nav1.6 it was 4.47 µM.
As for `Cc1nc(S(=O)(=O)Nc2cscn2)c(F)cc1NCc1c(F)ccc(F)c1Br` [Example 36, 5-((2-bromo-3,6-difluorobenzyl)amino)-3-fluoro-6-methyl-N-(thiazol-4-yl)pyridine-2-sulfonamide trifluoroacetic acid salt], the IC50 on Nav1.1 was 0.245 µM; at Nav1.5 (setting [1]), 30 µM; against Nav1.6, 0.863 µM.
On the same counts, the results for `Cc1nc(S(=O)(=O)Nc2cscn2)ccc1NCc1c(F)cccc1CN1CCCC1` [Example 30, 5-((2-fluoro-6-(pyrrolidin-1-ylmethyl)benzyl)amino)-6-methyl-N-(thiazol-4-yl)pyridine-2-sulfonamide trifluoroacetic acid salt] are 30 µM, 30 µM and 0.111 µM.
Consider `O=S(=O)(Nc1cscn1)c1ccc(NCc2c(F)cccc2CN2CCC2)nc1` [Example 5, 6-((2-(azetidin-1-ylmethyl)-6-fluorobenzyl)amino)-N-(thiazol-4-yl)pyridine-3-sulfonamide], for which the IC50 against Nav1.1 was 30 µM; on Nav1.5 (setting [1]), 26.5 µM; against Nav1.6, 8.47 µM.
In the same order, the values of `Cc1nc(S(=O)(=O)Nc2cccc(F)n2)ccc1NCc1c(F)cccc1CN1CCCC1` [Example 41, 5-((2-fluoro-6-(pyrrolidin-1-ylmethyl)benzyl)amino)-N-(6-fluoropyridin-2-yl)-6-methylpyridine-2-sulfonamide trifluoroacetic acid salt] are 11.1 µM, 30 µM and 0.056 µM.
On the same counts, the results for `Cc1sc(S(=O)(=O)Nc2cccc(F)n2)cc1NCc1c(F)cccc1Br` [Example 23, 4-((2-bromo-6-fluorobenzyl)amino)-N-(6-fluoropyridin-2-yl)-5-methylthiophene-2-sulfonamide] are 7.68 µM, 30 µM and 9.54 µM.
On the same counts, the results for `CN(Cc1cccc(F)c1CNc1ncc(S(=O)(=O)Nc2cscn2)cc1Cl)C(C)(C)C` [Example 11, 6-((2-((tert-butyl(methyl)amino)methyl)-6-fluorobenzyl)amino)-5-chloro-N-(thiazol-4-yl)pyridine-3-sulfonamide formic acid salt] are 11.7 µM, 8.87 µM and 8.37 µM.
Turning to `Cc1cc(S(=O)(=O)Nc2ccsn2)ncc1NCc1c(F)cccc1CN1CCC1` [Example 12, 5-((2-(azetidin-1-ylmethyl)-6-fluorobenzyl)amino)-N-(isothiazol-3-yl)-4-methylpyridine-2-sulfonamide trifluoroacetic acid salt], the IC50 on Nav1.1 was 30 µM; on Nav1.5 (setting [1]), 30 µM; at Nav1.6, 3.43 µM.
`Cc1nc(NCc2c(F)cccc2CN2CCCC2)ccc1S(=O)(=O)Nc1cccc(F)n1` [Example 40, 6-((2-fluoro-6-(pyrrolidin-1-ylmethyl)benzyl)amino)-N-(6-fluoropyridin-2-yl)-2-methylpyridine-3-sulfonamide trifluoroacetic acid salt]: the figures for the IC50 on Nav1.1, on Nav1.5 (setting [1]) and at Nav1.6 were 5.54 µM, 3.27 µM and 2.23 µM, respectively.
As for `Cc1nc(NCc2c(F)cccc2CN(C)C(C)(C)C)ccc1S(=O)(=O)Nc1cscn1` [Example 10, 6-((2-((tert-butyl(methyl)amino)methyl)-6-fluorobenzyl)amino)-2-methyl-N-(thiazol-4-yl)pyridine-3-sulfonamide formic acid salt], the IC50 against Nav1.1 was 23.6 µM; at Nav1.5 (setting [1]), 7.76 µM; against Nav1.6, 5.31 µM.
On the same counts, the results for `Cc1cc(S(=O)(=O)Nc2cccc(F)n2)ncc1NCc1c(F)cccc1CN1CCC1` [Example 9, 5-((2-(azetidin-1-ylmethyl)-6-fluorobenzyl)amino)-N-(6-fluoropyridin-2-yl)-4-methylpyridine-2-sulfonamide] are 30 µM, 21.1 µM and 0.917 µM.
On the same counts, the results for `Cc1nc(S(=O)(=O)Nc2cscn2)ccc1NCc1c(F)cccc1CN1CC(C)(F)C1` [Example 14, 5-((2-fluoro-6-((3-fluoro-3-methylazetidin-1-yl)methyl)benzyl)amino)-6-methyl-N-(thiazol-4-yl)pyridine-2-sulfonamide] are 13 µM, 24.5 µM and 0.382 µM.
